These results are taken from US11702422B2, “Imidazopyridazines as modulators of IL-17” (Janssen Pharmaceutica NV, priority 2020, dated 2023).

Experiment [1] has as its system IL-17A-induced G-CSF production in human normal keratinocyte (NHK). In words: NHK Assay: IL-17A-induced G-CSF production in human normal keratinocytes. It is filed as cell-based. The conditions noted are these: adult normal human keratinocytes, IL-17A 5 ng/mL, 24 h, simple average if tested more than once. The method, boiled down: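 Inhibition of IL-17A-driven G-CSF release is measured in adult keratinocytes stimulated for 24 h at 37° C with 5 ng/mL human IL-17A that had been pre-incubated with compound for 1 h. IC50 comes from HTRF G-CSF levels; cell viability is checked in parallel by luminescent ATP assay.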

Experiment [2] deals with IL-17A(FLAG-Tagged): IL-17RA(His-Tagged) (Homo sapiens, UniProt Q16552, K93Q). In words: IL-17A(FLAG-Tagged): IL-17RA(His-Tagged) Binding Disruption Eu-HTRF Assay. The conditions noted are these: IL-17A/IL-17RA binding disruption, simple average if tested more than once. The method in brief: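 IC50 comes from a one-site competition fit of the HTRF 665/620 nm ratio. Compound dilutions (2-fold, 22 points) were held 1 h rt with FLAG-tagged IL-17A dimer, then His-tagged IL-17RA plus Eu-cryptate anti-FLAG and D2 anti-His antibodies were added for 2 h rt.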
UniProt Q16552, sequence (Q16552 with tags, fused parts or gaps K93Q): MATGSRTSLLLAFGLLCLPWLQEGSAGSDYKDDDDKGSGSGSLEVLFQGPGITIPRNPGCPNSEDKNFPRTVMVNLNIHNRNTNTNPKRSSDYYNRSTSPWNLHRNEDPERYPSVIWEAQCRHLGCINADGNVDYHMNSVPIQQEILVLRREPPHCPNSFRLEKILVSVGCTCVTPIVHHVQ

On to `[2H]C([2H])([2H])C([2H])([2H])n1nccc1C(=O)N[C@H](c1cn2ncc(C(COCC)NC(=O)CC3CC(F)(F)C3)cc2n1)C1CCC(F)(F)CC1` (single isomer, unassigned) [Example 530, N—((S)-(7-((R*)-1-(2-(3,3-Difluorocyclobutyl)acetamido)-2-ethoxyethyl)imidazo[1,2-b]pyridazin-2-yl)(4,4-difluorocyclohexyl)methyl)-1-(ethyl-d5)-1H-pyrazole-5-carboxamide], for which the results for the IC50 in experiment [1] and in experiment [2] were 4600 nM and 980 nM, respectively.
`[2H]C([2H])([2H])C([2H])([2H])n1nccc1C(=O)N[C@H](c1cn2ncc(C(COCC)NC(=O)CC3CC(F)(F)C3)cc2n1)C1CCC(F)(F)CC1` (single isomer, unassigned) [Example 531, N—((S)-(7-((S*)-1-(2-(3,3-Difluorocyclobutyl)acetamido)-2-ethoxyethyl)imidazo[1,2-b]pyridazin-2-yl)(4,4-difluorocyclohexyl)methyl)-1-(ethyl-d5)-1H-pyrazole-5-carboxamide]: the IC50 in experiment [1] was found to be 110 nM; in experiment [2], 220 nM.
In the case of `CC(C)n1nccc1C(=O)N[C@H](c1cn2ncc(C(CO)NC(=O)CC3CC(F)(F)C3)cc2n1)C1CCC(F)(F)CC1` (single isomer, unassigned) [Example 532, N—((S)-(7-((R*)-1-(2-(3,3-Difluorocyclobutyl)acetamido)-2-hydroxyethyl)imidazo[1,2-b]pyridazin-2-yl)(4,4-difluorocyclohexyl)methyl)-1-isopropyl-1H-pyrazole-5-carboxamide], the figures for the IC50 in experiment [1] and in experiment [2] were 2800 nM and 1500 nM, respectively.
For `CC(C)n1nccc1C(=O)N[C@H](c1cn2ncc(C(CO)NC(=O)CC3CC(F)(F)C3)cc2n1)C1CCC(F)(F)CC1` (single isomer, unassigned) [Example 533, N—((S)-(7-((S*)-1-(2-(3,3-Difluorocyclobutyl)acetamido)-2-hydroxyethyl)imidazo[1,2-b]pyridazin-2-yl)(4,4-difluorocyclohexyl)methyl)-1-isopropyl-1H-pyrazole-5-carboxamide] the same measures were 150 nM and 480 nM.
As to `Cc1nonc1C(=O)N[C@H](c1cn2ncc(C(NC(=O)CC3CC(F)(F)C3)C3CCOCC3)cc2n1)C1CCC(F)(F)CC1` (single isomer, unassigned) [Example 534, N—((S)-(7-((R*)-1-(2-(3,3-Difluorocyclobutyl)acetamido)(tetrahydro-2H-pyran-4-yl)methyl)imidazo[1,2-b]pyridazin-2-yl)(4,4-difluorocyclohexyl)methyl)-4-methyl-1,2,5-oxadiazole-3-carboxamide], the IC50 amounted to 70 nM in experiment [1] (Homo sapiens, Keratinocyte) and 96 nM in experiment [2].
`CC(C)n1nccc1C(=O)N[C@H](c1cn2ncc(C(NC(=O)CC3CC(F)(F)C3)C3CCOCC3)cc2n1)C1CCC(F)(F)CC1` (single isomer, unassigned) [Example 535, N—((S)-(7-((R*)-1-(2-(3,3-Difluorocyclobutyl)acetamido)(tetrahydro-2H-pyran-4-yl)methyl)imidazo[1,2-b]pyridazin-2-yl)(4,4-difluorocyclohexyl)methyl)-1-isopropyl-1H-pyrazole-5-carboxamide]: the concentration for half-maximal inhibition (IC50) in experiment [1] (Homo sapiens, Keratinocyte) worked out at 89 nM; in experiment [2], 440 nM.
`COCC(NC(=O)CC1CC(F)(F)C1)c1cnn2cc([C@H](COC(C)(C)C(F)(F)F)NC(=O)c3nonc3C3CC3)nc2c1` (single isomer, unassigned) [Example 538, 4-Cyclopropyl-N—((R)-1-(7-((S*)-1-(2-(3,3-difluorocyclobutyl)acetamido)-2-methoxyethyl)imidazo[1,2-b]pyridazin-2-yl)-2-((1,1,1-trifluoro-2-methylpropan-2-yl)oxy)ethyl)-1,2,5-oxadiazole-3-carboxamide]: the IC50 in experiment [1] (Homo sapiens, Keratinocyte) worked out at 80 nM; in experiment [2] it was 24 nM.
The matching figures for `COCC(NC(=O)CC1CC(F)(F)C1)c1cnn2cc([C@H](COC(C)(C)C(F)(F)F)NC(=O)c3ccnn3C(C)C)nc2c1` (single isomer, unassigned) [Example 539, N—((R)-1-(7-((S*)-1-(2-(3,3-Difluorocyclobutyl)acetamido)-2-methoxyethyl)imidazo[1,2-b]pyridazin-2-yl)-2-((1,1,1-trifluoro-2-methylpropan-2-yl)oxy)ethyl)-1-isopropyl-1H-pyrazole-5-carboxamide]: 78 nM and 130 nM.
Consider `Cc1nonc1C(=O)N[C@H](c1cn2ncc(C(NC(=O)CCC(F)(F)F)C(C)C)cc2n1)C1CCC(F)(F)CC1` (single isomer, unassigned) [Example 546, N—((S)-(4,4-Difluorocyclohexyl)(7-((R*)-2-methyl-1-(4,4,4-trifluorobutanamido)propyl)imidazo[1,2-b]pyridazin-2-yl)methyl)-4-methyl-1,2,5-oxadiazole-3-carboxamide], for which the IC50 was over 20000 nM in experiment [1] and 640 nM in experiment [2].
As for `O=C(CCC(F)(F)F)NC(c1cnn2cc([C@@H](NC(=O)c3cnn(CC4CC4)n3)C3CCC(F)(F)CC3)nc2c1)C1CC1` (stereo in doubt) [Example 25, N—((S)-(7-((R*)-Cyclopropyl(4,4,4-trifluorobutanamido)methyl)imidazo[1,2-b]pyridazin-2-yl)(4,4-difluorocyclohexyl)methyl)-2-(cyclopropylmethyl)-2H-1,2,3-triazole-4-carboxamide], the IC50 came to 350 nM in experiment [1] (Homo sapiens, Keratinocyte) and 71 nM in experiment [2].
With `O=C(CC1CC(F)(F)C1)NC(c1cnn2cc([C@@H](NC(=O)c3cnn(CC(F)(F)F)n3)C3CCC(F)(F)CC3)nc2c1)C1CC1` (stereo in doubt) [Example 28, N—((S)-(7-((R*)-Cyclopropyl(2-(3,3-difluorocyclobutyl)acetamido)methyl)imidazo[1,2-b]pyridazin-2-yl)(4,4-difluorocyclohexyl)methyl)-2-(2,2,2-trifluoroethyl)-2H-1,2,3-triazole-4-carboxamide], the IC50 in experiment [1] (Homo sapiens, Keratinocyte) amounted to 390 nM; in experiment [2], 90 nM.
`O=C(CCC(F)(F)F)N[C@H](c1cnn2cc([C@H](NC(=O)c3conc3C3CCCC3)C3CCC(F)(F)CC3)nc2c1)C1CC1` (stereo in doubt) [Example 117, 3-Cyclopentyl-N—((R)-(7-((S)-cyclopropyl(4,4,4-trifluorobutanamido)methyl)imidazo[1,2-b]pyridazin-2-yl)(4,4-difluorocyclohexyl)methyl)isoxazole-4-carboxamide]: the half-inhibitory concentration (IC50) in experiment [1] (Homo sapiens, Keratinocyte) worked out at 120 nM; in experiment [2], 49 nM.
The matching figures for `CC(C)C(NC(=O)CC1CC(F)(F)C1)c1cnn2cc([C@@H](NC(=O)c3nonc3OCC(F)F)C3CCC(F)(F)CC3)nc2c1` (stereo in doubt) [Example 514, N—((S)-(7-((S*)-1-(2-(3,3-Difluorocyclobutyl)acetamido)-2-methylpropyl)imidazo[1,2-b]pyridazin-2-yl)(4,4-difluorocyclohexyl)methyl)-4-(2,2-difluoroethoxy)-1,2,5-oxadiazole-3-carboxamide]: 42 nM and 87 nM.
As to `CC(C)n1ncnc1C(=O)N[C@H](c1cn2ncc(C(NC(=O)CC3CC(F)(F)C3)C3CCOCC3)cc2n1)C1CCC(F)(F)CC1` (stereo in doubt) [Example 537, N—((S)-(7-((R*)-(2-(3,3-Difluorocyclobutyl)acetamido)(tetrahydro-2H-pyran-4-yl)methyl)imidazo[1,2-b]pyridazin-2-yl)(4,4-difluorocyclohexyl)methyl)-1-isopropyl-1H-1,2,4-triazole-5-carboxamide], the IC50 in experiment [1] (Homo sapiens, Keratinocyte) amounted to 150 nM; in experiment [2], 150 nM.
For the compound `O=C(CCC(F)(F)F)N[C@@H](c1cnn2cc([C@@H](NC(=O)c3cnn(CC4CCC4(F)F)n3)C3CCC(F)(F)CC3)nc2c1)C1CC1` (stereo partly drawn) [Example 4], the IC50 in experiment [1] (Homo sapiens, Keratinocyte) was determined as 370 nM; in experiment [2] it was 100 nM.
The matching figures for `O=C(CCC(F)(F)F)NCc1cnn2cc([C@@H](NC(=O)c3ccccc3)C3CCC(F)(F)CC3)nc2c1` [Example 5, (S)—N-((4,4-Difluorocyclohexyl)(7-((4,4,4-trifluorobutanamido)methyl)imidazo[1,2-b]pyridazin-2-yl)methyl)benzamide]: 1900 nM and 1100 nM.
The matching figures for `O=C(CCC(F)(F)F)N[C@@H](c1cnn2cc([C@@H](NC(=O)c3cnn(CCC(F)F)n3)C3CCC(F)(F)CC3)nc2c1)C1CC1` [Example 32, N—((S)-(7-((R)-Cyclopropyl(4,4,4-trifluorobutanamido)methyl)imidazo[1,2-b]pyridazin-2-yl)(4,4-difluorocyclohexyl)methyl)-2-(3,3-difluoropropyl)-2H-1,2,3-triazole-4-carboxamide]: 240 nM and 140 nM.
The matching figures for `O=C(CCC(F)(F)F)N[C@@H](c1cnn2cc([C@@H](NC(=O)c3ncn(CCC(F)(F)F)n3)C3CCC(F)(F)CC3)nc2c1)C1CC1` [Example 33, N—((S)-(7-((R)-Cyclopropyl(4,4,4-trifluorobutanamido)methyl)imidazo[1,2-b]pyridazin-2-yl)(4,4-difluorocyclohexyl)methyl)-1-(3,3,3-trifluoropropyl)-1H-1,2,4-triazole-3-carboxamide]: over 20000 nM and 4500 nM.

The IC50 is the concentration that gives 50% inhibition. A higher IC50 goes with weaker potency in that assay.
